Tested on: T1, tick larvae glutathione S transferase (TLGST)
T1 construct: native enzyme purified from larvae (42 kDa; 28 and 14 kDa subunits)
Assay: CDNB-GSH conjugation assay, Lineweaver-Burk and Ki plot
Type: biochemical, Hyalomma dromedarii

Question: With O=C(O)c1cc[c]([Hg][Cl])cc1 [p-chloromercuribenzoic acid] as the molecule, how does the Ki read?
Answer: 300 µM

Reference: PMC9995618 (Journal of Genetic Engineering & Biotechnology, 2023)
